Laboratory results taken from article PMC3775124 (Nuclear Medicine and Biology, 2013).

Tests used:
human MRP1 = human MRP1 (Homo sapiens, UniProt P33527); test: CETA in MDCK cells transduced with human MRP1; conditions: calcein AM 1 μM; n = 1
Method: (§1) For the in vitro transport studies LLC-PK1 cells transduced with human MDR1 or murine Mdr1a and respective wild-type LLC cells were used. Additionally, Madin-Darby canine kidney type II (MDCK-II) cells transduced with murine Bcrp1 or human BCRP or human MRP1 and respective wild-type MDCK-II cells were used. The cell lines were a kind gift from Piet Borst and Alfred Schinkel (The Netherlands Cancer Institute, Amsterdam, the Netherlands). Culturing of the cells was performed as described earlier. MDR1- and Mdr1a-overexpressing LLC cells were regularly tested for vincristine sulfate resistance (0.64 μM) as described before. The MDCK-II cells transduced with Bcrp1 or BCRP were regularly tested for mitoxantrone resistance (20 μM).
(§2) CETA was performed in triplicate as described previously. With a density of 0.3 × 10^6 cells/cm^2 LLC cells were seeded on transparent polyester membrane filters (Transwell-Clear®, 6-well, 24-mm diameter, 0.4-μm pore size, Corning Costar Corporation, Cambridge, MA, USA). […] Transport experiments were performed 5–7 days after the cells reached 100% confluence. […] Control CETA was performed with calcein AM (1 μM) for MRP1 [26] and [^14C]PhIP (2 μM) for Bcrp1/BCRP. The membrane integrity was determined by mannitol diffusion and transepithelial electrical resistance (TEER), with criteria for exclusion described earlier.

murine Mdr1a = molecular target: T1, murine Mdr1a (Mus musculus, UniProt P21447); test: CETA in LLC cells transduced with murine Mdr1a; type: in vitro ADME; conditions: tariquidar 0.5 μM; Mdr1a-overexpressing LLC cells
T1 construct: host or cells: LLC-PK1 (porcine kidney) cells
T1 sequence (P21447 whole entry): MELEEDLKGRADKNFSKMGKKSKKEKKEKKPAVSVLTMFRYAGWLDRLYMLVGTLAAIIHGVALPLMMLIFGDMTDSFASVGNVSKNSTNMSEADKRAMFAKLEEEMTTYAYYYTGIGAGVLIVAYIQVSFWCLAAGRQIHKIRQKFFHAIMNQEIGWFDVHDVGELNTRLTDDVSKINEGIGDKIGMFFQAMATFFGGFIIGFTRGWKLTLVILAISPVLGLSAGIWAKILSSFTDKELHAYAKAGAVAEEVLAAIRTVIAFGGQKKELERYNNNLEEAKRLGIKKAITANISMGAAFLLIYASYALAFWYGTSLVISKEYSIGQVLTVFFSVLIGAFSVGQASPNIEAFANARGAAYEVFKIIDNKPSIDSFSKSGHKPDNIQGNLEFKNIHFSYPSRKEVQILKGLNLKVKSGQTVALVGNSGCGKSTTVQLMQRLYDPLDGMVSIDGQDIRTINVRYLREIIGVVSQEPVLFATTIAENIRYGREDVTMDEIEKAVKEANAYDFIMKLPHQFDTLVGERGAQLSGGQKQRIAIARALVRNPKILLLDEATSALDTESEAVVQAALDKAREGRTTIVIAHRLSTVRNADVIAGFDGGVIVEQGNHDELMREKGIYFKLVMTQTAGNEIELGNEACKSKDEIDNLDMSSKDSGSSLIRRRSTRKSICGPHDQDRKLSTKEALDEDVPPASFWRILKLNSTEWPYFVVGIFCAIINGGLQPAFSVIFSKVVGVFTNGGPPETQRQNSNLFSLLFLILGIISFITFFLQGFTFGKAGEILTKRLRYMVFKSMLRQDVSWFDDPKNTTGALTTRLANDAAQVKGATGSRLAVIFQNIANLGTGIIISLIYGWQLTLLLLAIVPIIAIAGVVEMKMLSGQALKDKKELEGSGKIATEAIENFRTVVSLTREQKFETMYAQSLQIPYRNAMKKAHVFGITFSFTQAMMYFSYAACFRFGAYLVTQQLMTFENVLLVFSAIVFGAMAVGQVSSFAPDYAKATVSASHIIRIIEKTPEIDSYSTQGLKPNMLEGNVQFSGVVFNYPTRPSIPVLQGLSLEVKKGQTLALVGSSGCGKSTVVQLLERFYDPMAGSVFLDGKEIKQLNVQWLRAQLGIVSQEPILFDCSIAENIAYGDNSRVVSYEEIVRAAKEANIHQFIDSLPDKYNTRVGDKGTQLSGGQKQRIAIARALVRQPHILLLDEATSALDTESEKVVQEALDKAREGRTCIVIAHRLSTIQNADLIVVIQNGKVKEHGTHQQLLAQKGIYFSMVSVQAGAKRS

cerebral Pgp = tested on: cerebral Pgp; set-up: method as in PMID 20016890; conditions: tariquidar 15 mg/kg; rats; cited from earlier work
[1] = set-up: method as in PMID 19910428; conditions: cited from earlier work
human BCRP = human BCRP (Homo sapiens, UniProt Q9UNQ0); conditions: [^14C]PhIP 2 μM; n = 1
Sequence of human BCRP (Q9UNQ0 whole entry): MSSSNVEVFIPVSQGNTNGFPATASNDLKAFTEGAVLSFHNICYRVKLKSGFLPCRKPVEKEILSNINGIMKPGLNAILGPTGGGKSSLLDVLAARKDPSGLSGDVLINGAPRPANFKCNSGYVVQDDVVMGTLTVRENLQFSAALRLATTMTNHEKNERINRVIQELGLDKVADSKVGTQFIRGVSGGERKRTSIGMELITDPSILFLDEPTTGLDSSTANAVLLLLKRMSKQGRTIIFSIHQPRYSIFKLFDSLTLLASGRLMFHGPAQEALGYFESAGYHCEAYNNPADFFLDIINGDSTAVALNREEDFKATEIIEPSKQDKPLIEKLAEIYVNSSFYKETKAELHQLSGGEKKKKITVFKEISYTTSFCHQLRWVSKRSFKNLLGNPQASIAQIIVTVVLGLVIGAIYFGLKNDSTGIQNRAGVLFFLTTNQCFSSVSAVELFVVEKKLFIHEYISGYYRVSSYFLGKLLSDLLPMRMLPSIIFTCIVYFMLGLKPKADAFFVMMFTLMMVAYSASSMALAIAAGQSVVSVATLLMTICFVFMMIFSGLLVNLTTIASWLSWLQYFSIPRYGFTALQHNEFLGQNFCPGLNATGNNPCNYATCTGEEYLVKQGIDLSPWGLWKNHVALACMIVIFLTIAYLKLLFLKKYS
Method: as §1, §2

murine Bcrp1 = murine Bcrp1 (Mus musculus, UniProt Q7TMS5); conditions: [^14C]PhIP 2 μM; n = 1
Sequence of murine Bcrp1 (Q7TMS5 whole entry): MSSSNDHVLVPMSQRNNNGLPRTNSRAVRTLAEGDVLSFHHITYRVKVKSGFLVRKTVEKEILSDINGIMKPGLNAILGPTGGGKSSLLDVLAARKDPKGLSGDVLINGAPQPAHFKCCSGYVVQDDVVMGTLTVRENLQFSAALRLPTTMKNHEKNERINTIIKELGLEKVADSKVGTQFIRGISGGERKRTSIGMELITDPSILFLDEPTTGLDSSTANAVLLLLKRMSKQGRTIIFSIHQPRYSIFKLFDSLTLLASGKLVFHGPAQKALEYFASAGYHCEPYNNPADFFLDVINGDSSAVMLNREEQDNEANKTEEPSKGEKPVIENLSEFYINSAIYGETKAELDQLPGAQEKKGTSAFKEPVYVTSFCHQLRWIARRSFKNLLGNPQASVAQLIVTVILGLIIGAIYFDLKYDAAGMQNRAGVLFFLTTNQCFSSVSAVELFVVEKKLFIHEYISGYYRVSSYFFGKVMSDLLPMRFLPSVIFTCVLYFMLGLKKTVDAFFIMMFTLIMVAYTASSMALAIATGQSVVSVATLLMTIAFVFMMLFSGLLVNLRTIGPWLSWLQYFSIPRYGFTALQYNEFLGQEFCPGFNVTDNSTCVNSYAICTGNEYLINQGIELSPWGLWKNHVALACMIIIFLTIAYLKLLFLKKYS
Method: as §1, §2

Sequence of human MRP1 (P33527 whole entry): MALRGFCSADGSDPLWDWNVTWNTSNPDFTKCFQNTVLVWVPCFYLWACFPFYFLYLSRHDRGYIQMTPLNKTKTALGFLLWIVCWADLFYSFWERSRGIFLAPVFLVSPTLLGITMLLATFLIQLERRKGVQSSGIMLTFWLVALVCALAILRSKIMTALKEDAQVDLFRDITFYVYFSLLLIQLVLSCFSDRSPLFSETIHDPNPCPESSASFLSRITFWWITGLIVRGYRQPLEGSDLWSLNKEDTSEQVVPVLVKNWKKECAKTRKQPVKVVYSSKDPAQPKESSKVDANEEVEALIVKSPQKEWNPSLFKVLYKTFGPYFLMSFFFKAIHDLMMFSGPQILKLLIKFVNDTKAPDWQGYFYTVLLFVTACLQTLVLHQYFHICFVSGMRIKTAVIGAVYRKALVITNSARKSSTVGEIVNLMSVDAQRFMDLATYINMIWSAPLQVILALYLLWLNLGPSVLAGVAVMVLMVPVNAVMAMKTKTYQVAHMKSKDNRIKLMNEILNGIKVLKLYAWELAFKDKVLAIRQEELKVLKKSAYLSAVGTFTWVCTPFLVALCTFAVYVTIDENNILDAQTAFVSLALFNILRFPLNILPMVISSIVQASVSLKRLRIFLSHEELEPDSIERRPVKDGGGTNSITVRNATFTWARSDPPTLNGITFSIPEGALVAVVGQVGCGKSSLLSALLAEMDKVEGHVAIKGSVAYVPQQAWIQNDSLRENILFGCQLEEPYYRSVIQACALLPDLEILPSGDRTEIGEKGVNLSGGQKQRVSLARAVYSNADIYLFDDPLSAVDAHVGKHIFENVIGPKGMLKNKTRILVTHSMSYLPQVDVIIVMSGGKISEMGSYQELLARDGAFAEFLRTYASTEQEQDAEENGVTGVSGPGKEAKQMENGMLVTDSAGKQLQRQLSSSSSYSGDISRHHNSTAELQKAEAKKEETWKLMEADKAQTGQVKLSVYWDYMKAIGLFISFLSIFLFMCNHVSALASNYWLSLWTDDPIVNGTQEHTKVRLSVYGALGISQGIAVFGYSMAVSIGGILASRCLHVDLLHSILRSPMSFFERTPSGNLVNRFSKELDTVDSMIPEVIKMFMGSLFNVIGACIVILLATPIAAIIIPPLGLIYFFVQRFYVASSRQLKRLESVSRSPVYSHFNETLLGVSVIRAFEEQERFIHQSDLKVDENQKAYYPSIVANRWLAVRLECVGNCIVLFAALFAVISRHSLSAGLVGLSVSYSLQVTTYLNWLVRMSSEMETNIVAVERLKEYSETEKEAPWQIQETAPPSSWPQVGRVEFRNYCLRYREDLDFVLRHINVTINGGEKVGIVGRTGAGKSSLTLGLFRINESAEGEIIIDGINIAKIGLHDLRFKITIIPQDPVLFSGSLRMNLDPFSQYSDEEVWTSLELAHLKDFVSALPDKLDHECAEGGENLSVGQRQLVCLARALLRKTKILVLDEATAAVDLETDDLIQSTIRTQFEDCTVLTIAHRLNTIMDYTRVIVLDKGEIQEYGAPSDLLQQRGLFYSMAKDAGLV

**Q.** For calcein AM, which “control CETA for MRP1 function” value (human MRP1) is on record?
**A.** functional MRP1 was present

**Q.** With `COc1cc2c(cc1OC)CN(CCc1ccc(NC(=O)c3cc(OC)c(OC)cc3NC(=O)c3cnc4ccccc4c3)cc1)CC2` [tariquidar, Tariquidar dimesylate] as the compound, how does the “inhibition of [^3H]verapamil transport” value (murine Mdr1a) read?
**A.** almost completely inhibited

**Q.** What about the “inhibition of cerebral Pgp” value (cerebral Pgp) of the same compound?
**A.** complete inhibition

**Q.** And the “influence on (R)-[^11C]verapamil metabolism and plasma protein binding” value [1]?
**A.** does not influence

**Q.** What does the source list for `Cn1c(N)nc2ncc(-c3ccccc3)cc21` [[^14C]PhIP, [^14C]2-amino-1-methyl-6-phenylimidazo[4,5-b]pyridine]?
**A.** control CETA for BCRP function (human BCRP): functional; control CETA for Bcrp1 function (murine Bcrp1): functional
